Results as given in patent US12617797B2, “Substituted pyrazolo [1,5-a]pyrimidines having multimodal activity against pain” (ESTEVE PHARMACEUTICALS, S.A., priority 2020, dated 2026).

Experiments:
[1] = molecular target: T1, Human σ1 receptor (Homo sapiens, UniProt Q99720); experiment: Human σ1 receptor radioligand assay ([3H](+)-pentazocine binding, transfected HEK-293 membranes); conditions: binding to σ1 receptor expressed as Ki; + also covers inhibition between 1% and 50%; read-out: σ-1 binding
T1 construct: expressed in transfected cells; host or cells: HEK-293
Protocol: Human σ1 Receptor Radioligand Assay
Transfected HEK-293 membranes (7 μg) were incubated with 5 nM of [^3H](+)-pentazocine in assay buffer containing Tris-HCl 50 mM at pH 8. NBS (non-specific binding) was measured by adding 10 μM haloperidol. The binding of the test compound was measured at either one concentration (% inhibition at 1 or 10 μM) or five different concentrations to determine affinity values (Ki). Plates were incubated at 37° C. for 120 minutes. After the incubation period, the reaction mix was then transferred to MultiScreen HTS, FC plates (Millipore), filtered and plates were washed 3 times with ice-cold 10 mM Tris-HCL (pH7.4). Filters were dried and counted at approximately 40% efficiency in a MicroBeta scintillation counter (Perkin-Elmer) using EcoScint liquid scintillation cocktail.

[2] = molecular target: Human α2δ-1 subunit of Cav2.2 calcium channel (Homo sapiens, UniProt P54289); experiment: Human α2δ-1 subunit of Cav2.2 calcium channel assay ([3H]-gabapentin binding); conditions: binding to the α2δ-1 subunit of voltage-gated calcium channels expressed as Ki; + also covers inhibition between 1% and 50%
Protocol: Biological Activity Pharmacological Study Human α2δ-1 Subunit of Cav2.2 Calcium Channel Assay
Human α2δ-1 enriched membranes (2.5 μg) were incubated with 15 nM of radiolabeled [^3H]-Gabapentin in assay buffer containing Hepes-KOH 10 mM, pH 7.4. NSB (non specific binding) was measured by adding 10 μM pregabalin. The binding of the test compound was measured at either one concentration (% inhibition at 1 or 10 μM) or five different concentrations to determine affinity values (Ki). After 60 min incubation at 27° C., binding reaction was terminated by filtering through Multiscreen GF/C (Millipore) presoaked in 0.5% polyethyleneimine in Vacuum Manifold Station, followed by 3 washes with ice-cold filtration buffer containing 50 mM Tris-HCl, pH 7.4. Filter plates were dried at 60° C. for 1 h and 30 μL of scintillation cocktail were added to each well before radioactivity reading. Readings were performed in a Trilux 1450 Microbeta radioactive counter (Perkin Elmer).

Human α2δ-1 subunit of Cav2.2 calcium channel, sequence (P54289 25-1103): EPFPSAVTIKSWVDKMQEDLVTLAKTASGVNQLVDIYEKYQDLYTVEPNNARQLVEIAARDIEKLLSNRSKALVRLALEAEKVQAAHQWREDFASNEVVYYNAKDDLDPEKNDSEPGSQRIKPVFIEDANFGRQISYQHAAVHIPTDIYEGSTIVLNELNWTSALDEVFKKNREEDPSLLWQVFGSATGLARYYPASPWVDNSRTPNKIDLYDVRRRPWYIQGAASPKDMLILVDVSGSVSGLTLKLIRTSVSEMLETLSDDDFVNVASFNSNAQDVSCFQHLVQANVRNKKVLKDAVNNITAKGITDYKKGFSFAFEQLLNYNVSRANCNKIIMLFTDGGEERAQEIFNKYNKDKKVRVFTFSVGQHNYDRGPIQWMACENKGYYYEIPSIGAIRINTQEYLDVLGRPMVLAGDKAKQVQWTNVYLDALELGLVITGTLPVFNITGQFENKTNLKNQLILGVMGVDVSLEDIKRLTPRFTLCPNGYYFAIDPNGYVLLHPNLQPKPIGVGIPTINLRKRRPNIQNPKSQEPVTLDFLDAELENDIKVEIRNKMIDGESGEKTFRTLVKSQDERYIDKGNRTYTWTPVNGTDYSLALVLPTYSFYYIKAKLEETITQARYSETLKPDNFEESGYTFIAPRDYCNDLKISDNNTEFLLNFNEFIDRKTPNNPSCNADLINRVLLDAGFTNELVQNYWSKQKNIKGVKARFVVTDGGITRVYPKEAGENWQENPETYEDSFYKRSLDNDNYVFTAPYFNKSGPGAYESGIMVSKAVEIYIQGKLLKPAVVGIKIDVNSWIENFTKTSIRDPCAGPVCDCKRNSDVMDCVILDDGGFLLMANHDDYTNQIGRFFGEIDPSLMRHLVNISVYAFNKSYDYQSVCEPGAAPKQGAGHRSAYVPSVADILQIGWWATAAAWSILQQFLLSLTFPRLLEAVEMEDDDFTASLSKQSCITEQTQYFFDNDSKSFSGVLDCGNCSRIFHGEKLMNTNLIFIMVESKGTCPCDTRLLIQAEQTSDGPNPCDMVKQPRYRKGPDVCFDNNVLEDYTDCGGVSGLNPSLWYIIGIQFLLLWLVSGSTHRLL
T1 sequence (Q99720 whole entry): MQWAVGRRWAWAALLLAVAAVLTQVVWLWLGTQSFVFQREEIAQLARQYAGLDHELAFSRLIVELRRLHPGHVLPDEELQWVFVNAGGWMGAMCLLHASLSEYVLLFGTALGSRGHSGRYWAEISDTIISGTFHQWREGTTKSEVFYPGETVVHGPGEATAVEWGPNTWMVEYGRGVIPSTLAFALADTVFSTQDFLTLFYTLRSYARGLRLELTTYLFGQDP

Row | SMILES | Ki [1] | Ki [2]
1 | Cc1nn2c(C3CCCN(Cc4ccc(Cl)cc4)C3)ccnc2c1CNCC1CCOC1 (racemic) [Example 201, (+/−)-1-(7-((R/S)-1-(4-Chlorobenzyl)piperidin-3-yl)-2-methylpyrazolo[1,5-a]pyrimidin-3-yl)-N—(((S/R)-tetrahydrofuran-3-yl)methyl)methanamine] | < 500 nM | > 5000 nM
2 | Cc1nn2c([C@@H]3CCCN(Cc4ccc(Cl)cc4)C3)ccnc2c1CNC[C@@H]1CCOC(C)(C)C1 (racemic) [Example 221, (+/−)-1-(7-((R/S)-1-(4-Chlorobenzyl)piperidin-3-yl)-2-methylpyrazolo[1,5-a]pyrimidin-3-yl)-N—(((R/S)-2,2-dimethyltetrahydro-2H-pyran-4-yl)methyl)methanamine] | < 500 nM | < 500 nM
3 | Cc1nn2c([C@@H]3CCCN(Cc4ccc(Cl)cc4)C3)ccnc2c1CN[C@H](C)C1CCOCC1 (racemic) [Example 224, (+/−)-(R/S)—N-((7-((R/S)-1-(4-Chlorobenzyl)piperidin-3-yl)-2-methylpyrazolo[1,5-a]pyrimidin-3-yl)methyl)-1-(tetrahydro-2H-pyran-4-yl)ethan-1-amine] | < 500 nM | 500 to 5000 nM
4 | c1ccc(CN2CCCC(c3ccnc4cc(-c5ccccc5)nn34)C2)cc1 (stereo not shown) [Example 12, 7-(1-Benzylpiperidin-3-yl)-2-phenylpyrazolo[1,5-a]pyrimidine] | 500 to 1000 nM | > 5000 nM
5 | CCOc1ccc(-c2cc3nccc(C4CCCN(Cc5ccccc5)C4)n3n2)cc1 (stereo not shown) [Example 13, 7-(1-Benzylpiperidin-3-yl)-2-(4-ethoxyphenyl)pyrazolo[1,5-a]pyrimidine] | > 1000 nM | > 5000 nM
6 | Fc1ccccc1-c1cc2nccc(C3CCCN(Cc4ccccc4)C3)n2n1 (stereo not shown) [Example 14, 7-(1-Benzylpiperidin-3-yl)-2-(2-fluorophenyl)pyrazolo[1,5-a]pyrimidine] | 500 to 1000 nM | 500 to 5000 nM
7 | Clc1ccc(-c2cc3nccc(C4CCCN(Cc5ccccc5)C4)n3n2)cc1 (stereo not shown) [Example 15, 7-(1-Benzylpiperidin-3-yl)-2-(4-chlorophenyl)pyrazolo[1,5-a]pyrimidine] | > 1000 nM | > 5000 nM
8 | c1ccc(CN2CCCC(c3ccnc4cc(-c5ccncc5)nn34)C2)cc1 (stereo not shown) [Example 16, 7-(1-Benzylpiperidin-3-yl)-2-(pyridin-4-yl)pyrazolo[1,5-a]pyrimidine] | > 1000 nM | 500 to 5000 nM
9 | c1ccc(CN2CCCC(c3ccnc4cc(-c5cccnc5)nn34)C2)cc1 (stereo not shown) [Example 17, 7-(1-Benzylpiperidin-3-yl)-2-(pyridin-3-yl)pyrazolo[1,5-a]pyrimidine] | 500 to 1000 nM | 500 to 5000 nM
10 | Clc1cncc(Cl)c1-c1cc2nccc(C3CCCN(Cc4ccccc4)C3)n2n1 (stereo not shown) [Example 18, 7-(1-Benzylpiperidin-3-yl)-2-(3,5-dichloropyridin-4-yl)pyrazolo[1,5-a]pyrimidine] | 500 to 1000 nM | 500 to 5000 nM
11 | c1ccc(CN2CCCC(c3ccnc4cc(-c5cccs5)nn34)C2)cc1 (stereo not shown) [Example 19, 7-(1-Benzylpiperidin-3-yl)-2-(thiophen-2-yl)pyrazolo[1,5-a]pyrimidine] | > 1000 nM | 500 to 5000 nM
12 | Cn1cncc1-c1cc2nccc(C3CCCN(Cc4ccccc4)C3)n2n1 (stereo not shown) [Example 21, 7-(1-Benzylpiperidin-3-yl)-2-(1-methyl-1H-imidazol-5-yl)pyrazolo[1,5-a]pyrimidine] | > 1000 nM | 500 to 5000 nM
13 | CN(C)c1ccc(-c2cc3nccc(C4CCCN(Cc5ccccc5)C4)n3n2)cc1 (stereo not shown) [Example 22, 4-(7-(1-Benzylpiperidin-3-yl)pyrazolo[1,5-a]pyrimidin-2-yl)-N,N-dimethylaniline] | > 1000 nM | 500 to 5000 nM
14 | c1ccc(CN2CCCC(c3ccnc4cc(-c5cncnc5)nn34)C2)cc1 (stereo not shown) [Example 23, 7-(1-Benzylpiperidin-3-yl)-2-(pyrimidin-5-yl)pyrazolo[1,5-a]pyrimidine] | > 1000 nM | 500 to 5000 nM
15 | Nc1ccc(-c2cc3nccc(C4CCCN(Cc5ccccc5)C4)n3n2)cn1 (stereo not shown) [Example 24, 5-(7-(1-Benzylpiperidin-3-yl)pyrazolo[1,5-a]pyrimidin-2-yl)pyridin-2-amine] | > 1000 nM | 500 to 5000 nM
16 | CC(=O)N1CCC(CNCc2c(Cl)nn3c([C@@H]4CCCN(Cc5ccccc5)C4)ccnc23)CC1 [Example 217, (R)-1-(4-((((7-(1-benzylpiperidin-3-yl)-2-chloropyrazolo[1,5-a]pyrimidin-3-yl)methyl)amino)methyl)piperidin-1-yl)ethan-1-one] | – | > 5000 nM

Continued, values first:

Row | Ki [1] | Ki [2] | SMILES
17 | 500 to 1000 nM | 500 to 5000 nM | Brc1cc2nccc(C3CCCN(Cc4ccccc4)C3)n2n1 (stereo not shown) [Example 1, 7-(1-Benzylpiperidin-3-yl)-2-bromopyrazolo[1,5-a]pyrimidine]
18 | > 1000 nM | 500 to 5000 nM | c1ccc(CN2CCCC(c3ccnc4ccnn34)C2)cc1 (stereo not shown) [Example 2, 7-(1-Benzylpiperidin-3-yl)pyrazolo[1,5-a]pyrimidine]
19 | 500 to 1000 nM | 500 to 5000 nM | Cc1cc2nccc(C3CCCN(Cc4ccccc4)C3)n2n1 (stereo not shown) [Example 3, 7-(1-Benzylpiperidin-3-yl)-2-methylpyrazolo[1,5-a]pyrimidine]
20 | < 500 nM | 500 to 5000 nM | CCc1cc2nccc(C3CCCN(Cc4ccccc4)C3)n2n1 (stereo not shown) [Example 4, 7-(1-Benzylpiperidin-3-yl)-2-ethylpyrazolo[1,5-a]pyrimidine]
21 | < 500 nM | 500 to 5000 nM | Brc1cnn2c(C3CCCN(Cc4ccccc4)C3)ccnc12 (stereo not shown) [Example 5, 7-(1-Benzylpiperidin-3-yl)-3-bromopyrazolo[1,5-a]pyrimidine]
22 | > 1000 nM | 500 to 5000 nM | Cc1cnc2c(Br)c(C)nn2c1C1CCCN(Cc2ccccc2)C1 (stereo not shown) [Example 6, 7-(1-Benzylpiperidin-3-yl)-3-bromo-2,6-dimethylpyrazolo[1,5-a]pyrimidine]
23 | > 1000 nM | > 5000 nM | Cc1cnc2c(Br)cnn2c1C1CCCN(Cc2ccccc2)C1 (stereo not shown) [Example 7, 7-(1-Benzylpiperidin-3-yl)-3-bromo-6-methylpyrazolo[1,5-a]pyrimidine]
24 | > 1000 nM | > 5000 nM | CC(=O)Nc1c(C)nn2c(C3CCCN(Cc4ccccc4)C3)ccnc12 (stereo not shown) [Example 8, N-(7-(1-Benzylpiperidin-3-yl)-2-methylpyrazolo[1,5-a]pyrimidin-3-yl)acetamide]
25 | > 1000 nM | > 5000 nM | CC(=O)Nc1nn2c(C3CCCN(Cc4ccccc4)C3)ccnc2c1C (stereo not shown) [Example 9, N-(7-(1-Benzylpiperidin-3-yl)-3-methylpyrazolo[1,5-a]pyrimidin-2-yl)acetamide]
26 | < 500 nM | 500 to 5000 nM | Cc1nn2c(C3CCCN(Cc4ccccc4)C3)ccnc2c1Br (stereo not shown) [Example 10, 7-(1-Benzylpiperidin-3-yl)-3-bromo-2-methylpyrazolo[1,5-a]pyrimidine]
27 | < 500 nM | 500 to 5000 nM | CCc1nn2c(C3CCCN(Cc4ccccc4)C3)ccnc2c1Br (stereo not shown) [Example 11, 7-(1-Benzylpiperidin-3-yl)-3-bromo-2-ethylpyrazolo[1,5-a]pyrimidine]
28 | > 1000 nM | 500 to 5000 nM | c1ccc(CN2CCCC(c3ccnc4cc(-c5cnsc5)nn34)C2)cc1 (stereo not shown) [Example 20, 4-(7-(1-Benzylpiperidin-3-yl)pyrazolo[1,5-a]pyrimidin-2-yl)isothiazole]
